{"source": "paper PMC10487456", "about": "“Canagliflozin Inhibited the Activity of Hemolysin and Reduced the Inflammatory Response Caused by Streptococcus suis” (International Journal of Molecular Sciences, 2023)", "key": {"[1]": {"biological_target": "T1, SLY (hemolysin) (Streptococcus suis, UniProt Q55996)", "T1 sequence (Q55996 28-497 limits assumed)": "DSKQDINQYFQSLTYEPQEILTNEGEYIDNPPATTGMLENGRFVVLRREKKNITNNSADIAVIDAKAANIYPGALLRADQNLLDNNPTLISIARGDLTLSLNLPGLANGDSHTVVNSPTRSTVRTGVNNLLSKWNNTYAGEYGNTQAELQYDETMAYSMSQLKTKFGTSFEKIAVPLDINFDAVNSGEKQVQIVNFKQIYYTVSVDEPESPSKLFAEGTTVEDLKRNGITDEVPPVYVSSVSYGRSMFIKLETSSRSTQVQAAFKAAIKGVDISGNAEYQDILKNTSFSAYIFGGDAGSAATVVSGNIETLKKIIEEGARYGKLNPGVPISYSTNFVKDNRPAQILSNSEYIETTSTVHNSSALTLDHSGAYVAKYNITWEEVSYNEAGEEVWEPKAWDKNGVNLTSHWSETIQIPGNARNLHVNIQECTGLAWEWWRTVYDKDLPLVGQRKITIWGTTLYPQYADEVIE", "assay": "biochemical", "conditions": "read-out: % inhibition at 16 μg/mL"}, "[2]": {"biological_target": "T1, SLY (hemolysin)", "assay": "biochemical"}}}
{"compound": "Cc1ccc([C@@H]2O[C@H](CO)[C@@H](O)[C@H](O)[C@H]2O)cc1Cc1ccc(-c2ccc(F)cc2)s1", "note": "[canagliflozin]", "values": [{"measurement": "inhibition at 16 µg/mL", "setting": "[1]", "value": 76, "unit": "%"}, {"measurement": "Kd", "setting": "[2]", "value": 900, "unit": "nM"}]}
